For test [1], the system named is HCV genotype 1b replicon. Briefly: HCV replicon assay, genotype 1b (cell ELISA for NS3/4A). Format: cell-based, hepatitis C virus. The protocol:
(§1) Measurement of inhibition by compounds was performed using the HCV replicon system. Several different replicons encoding different HCV genotypes or mutations were used. In addition, potency measurements were made using different formats of the replicon assay, including different ways of measurements and different plating formats. See Jan M. Vrolijk et al., A replicons-based bioassay for the measurement of interferons in patients with chronic hepatitis C, 110 J. VIROLOGICAL METHODS 201 (2003); Steven S. Carroll et al., Inhibition of Hepatitis C Virus RNA Replication by 2′-Modified Nucleoside Analogs, 278 (14) J. BIOLOGICAL CHEMISTRY 11979 (2003). However, the underlying principles are common to all of these determinations, and are outlined below.
(§2) Stable neomycin phosphotransferase encoding replicons-harboring cell lines were used, so all cell lines were maintained under G418 selection prior to the assay. Potency was deteremined using a cell ELISA assay with an antibody to the replicons encoded NS3/4a protease. See Caterina Trozzi et al., In Vitro Selection and Characterization of Hepatitis C Virus Serine Protease Variants Resistant to an Active-Site Peptide Inhibitor, 77 (6) J. Virol. 3669 (2003). To initiate an assay, replicon cells were plated in the presence of a dilution series of test compound in the absence of G418. Typically, the assays were performed in a 96-well plate formate for manual operation, or a 384-well plate format for automated assay. Replicon cells and compound were incubated for 96 hours. At the end of the assay, cells were washed free of media and compound, and the cells were then lysed. RNA was quantified indirectly through detection of replicon-encoded NS3/4A protein levels, through an ELISA-based assay with an antibody specific for NS3/4A. IC50 determinations were calculated as a percentage of a DMSO control by fitting the data to a four-parameter fit function and the data obtained for genotypes 1a and 1b using this method is provided in the table below.

Test [2] deals with HCV genotype 1a replicon. The test can be described thus: HCV replicon assay, genotype 1a (cell ELISA for NS3/4A). Format: cell-based, hepatitis C virus. The protocol:
as §1, §2

[3] abbreviates: Hepatitis C virus, 96 h, read-out: 1b IC50 (nM), genotype 1b replicon cells, 96 hours incubation, NS3/4A ELISA.
The mark [4] stands for this setting: Hepatitis C virus, 96 h, read-out: 1a IC50 (nM), genotype 1a replicon cells, 96 hours incubation, NS3/4A ELISA.
The mark [5] stands for this setting: read-out: 1a IC50, genotype 1a replicon cells, 96 hours incubation, NS3/4A ELISA.
[6] abbreviates: read-out: 1b IC50, genotype 1b replicon cells, 96 hours incubation, NS3/4A ELISA.

Where two headings read alike, the source gives them in different places.

On to `CNC(=O)c1c(-c2ccc(F)cc2)oc2cc(N(C)S(C)(=O)=O)c(-c3cc4c(nn3)CCn3c-4cc4c(F)cccc43)cc12` [Example 48, 5-(11-fluoro-5,6-dihydropyridazino[4′,3′:3,4]pyrido[1,2-a]indol-2-yl)-2-(4-fluorophenyl)-N-methyl-6-(N-methylmethylsulfonamido)benzofuran-3-carboxamide], for which the values for the IC50 in test [1] (setting [3]) and in test [2] (setting [4]) were 2.64 nM and 1.72 nM, respectively.
As to `CNC(=O)c1c(-c2ccc(F)cc2)oc2cc(N(C)S(C)(=O)=O)c(-c3ccc4c(n3)-c3cc5c(F)cccc5n3C(CO)C4)cc12` (stereo not shown) [Example 52], the IC50 in test [1] (setting [3]) amounted to 2.32 nM; in test [2] (setting [5]), 3.35 nM.
`CNC(=O)c1c(-c2ccc(F)cc2)oc2cc(N(C)S(C)(=O)=O)c(-c3ccc4c(n3)-c3cc5c(F)cccc5n3C(CO)C4)cc12` (stereo not shown) [Example 53]: the IC50 in test [1] (setting [6]) amounted to 4.03 nM; in test [2] (setting [5]), 8.07 nM.
Turning to `CNC(=O)c1c(-c2ccc(F)cc2)oc2cc(N(C)S(C)(=O)=O)c(-c3ccc4c(n3)-c3cc5c(F)cccc5n3C(CO)C4)cc12` (stereo not shown) [Example 54], the IC50 in test [1] (setting [6]) worked out at 2.25 nM; in test [2] (setting [5]) it was 1.56 nM.
Consider `CNC(=O)c1c(-c2ccc(F)cc2)oc2cc(N(C)S(C)(=O)=O)c(-c3ccc4c(n3)-c3cc5c(F)cccc5n3C4CO)cc12` (stereo not shown) [Example 55], for which the figures for the IC50 in test [1] (setting [3]) and in test [2] (setting [4]) were 1.81 nM and 0.971 nM, respectively.
For the compound `CNC(=O)c1c(-c2ccc(F)cc2F)oc2cc(N(C)S(C)(=O)=O)c(-c3ccc4c(n3)-c3cc5c(F)cccc5n3C(CS(C)(=O)=O)C4)cc12` (stereo not shown) [Example 58], the IC50 is 1.71 nM in test [1] (setting [3]) and 1.52 nM in test [2] (setting [5]).
Regarding `CNC(=O)c1c(-c2ccc(F)cc2F)oc2cc(N(C)S(C)(=O)=O)c(-c3ccc4c(n3)-c3cc5c(F)cccc5n3C(CS(C)(=O)=O)C4)cc12` (stereo not shown) [Example 59], the IC50 in test [1] (setting [6]) came to 2.9 nM; in test [2] (setting [5]), 5.45 nM.
Consider `CNC(=O)c1c(-c2ccc(F)cc2)oc2cc(N(C)S(C)(=O)=O)c(-c3ccc4c(n3)-c3cc5c(F)cccc5n3CC4C)cc12` (stereo not shown) [Example 62], for which the results for the IC50 in test [1] (setting [3]) and in test [2] (setting [4]) were 2.55 nM and 2.69 nM, respectively.
Taken in the same sequence, the figures for `CNC(=O)c1c(-c2ccc(F)cc2)oc2cc(N(C)S(C)(=O)=O)c(-c3ncc4c(n3)-c3cc5c(F)cccc5n3CC4)cc12` [Example 63, 5-(11-fluoro-5,6-dihydropyrimido[4′,5′:3,4]pyrido[1,2-a]indol-2-yl)-2-(4-fluorophenyl)-N-methyl-6-(N-methylmethylsulfonamido)benzofuran-3-carboxamide] were 3.28 nM and 4.34 nM.
`CNC(=O)c1c(-c2ccc(F)cc2)oc2cc(N(C)S(C)(=O)=O)c(-c3cc4c(cn3)CC(C)(C)n3c-4cc4c(F)cccc43)cc12` [Example 64, 5-(11-fluoro-6,6-dimethyl-5,6-dihydroindolo[2,1-a][2,6]naphthyridin-2-yl)-2-(4-fluorophenyl)-N-methyl-6-(N-methylmethylsulfonamido)benzofuran-3-carboxamide]: the IC50 came to 9.09 nM in test [1] (setting [3]) and 23.2 nM in test [2] (setting [4]).
Turning to `CNC(=O)c1c(-c2ccc(F)cc2)oc2cc(N(C)S(C)(=O)=O)c(-c3ccc4c(n3)-c3cc5c(F)cccc5n3C(CCO)C4)cc12` (stereo not shown) [Example 65, 5-(11-fluoro-6-(2-hydroxyethyl)-5,6-dihydroindolo[1,2-h][1,7]naphthyridin-2-yl)-2-(4-fluorophenyl)-N-methyl-6-(N-methylmethylsulfonamido)benzofuran-3-carboxamide], the values for the IC50 in test [1] (setting [3]) and in test [2] (setting [4]) were 3.96 nM and 3.62 nM, respectively.
Regarding `CNC(=O)c1c(-c2ccc(C)nc2)oc2cc(N(C)S(C)(=O)=O)c(-c3ccc4c(n3)-c3cc5c(F)cccc5n3C(CCN3CC(F)C3)C4)cc12` (stereo not shown) [Example 66, 5-(11-fluoro-6-(2-(3-fluoroazetidin-1-yl)ethyl)-5,6-dihydroindolo[1,2-h][1,7]naphthyridin-2-yl)-N-methyl-6-(N-methylmethylsulfonamido)-2-(6-methylpyridin-3-yl)benzofuran-3-carboxamide], the IC50 in test [1] (setting [6]) turned out to be 11.4 nM; in test [2] (setting [5]), 13 nM.
For `CNC(=O)c1c(-c2ccc(C)nc2)oc2cc(N(C)S(C)(=O)=O)c(-c3ccc4c(n3)-c3cc5c(F)cccc5n3C(CCN3CC(F)C3)C4)cc12` (stereo not shown) [Example 67], the IC50 in test [1] (setting [6]) was determined as 16.4 nM; in test [2] (setting [5]) it was 12.5 nM.
Taken in the same sequence, the figures for `CNC(=O)c1c(-c2ccc(C)nc2)oc2cc(N(C)S(C)(=O)=O)c(-c3ccc4c(n3)-c3cc5c(F)cccc5n3C(CCN3CC(F)C3)C4)cc12` (stereo not shown) [Example 68] were 60.6 nM and 70.9 nM.
As for `CNC(=O)c1c(-c2ccc(F)cc2)oc2cc(N(C)S(C)(=O)=O)c(-c3ccc4c(n3)-c3cc5c(F)cccc5n3CC(O)C4)cc12` (stereo not shown) [Example 69], the IC50 in test [1] (setting [3]) came to 2.95 nM; in test [2] (setting [4]) it was 2.3 nM.
On the same counts, the results for `CNC(=O)c1c(-c2ccc(C)nc2)oc2cc(N(C)S(C)(=O)=O)c(-c3ccc4c(n3)-c3cc5c(F)cccc5n3CC(N3CC(F)C3)C4)cc12` (stereo not shown) [Example 71] are 42.2 nM and 41.7 nM.
Consider `CNC(=O)c1c(-c2ccc(F)cc2)oc2cc(N(C)S(C)(=O)=O)c(-c3ccc4c(n3)-c3cc5c(F)cccc5n3CCC4)cc12` [Example 72, 5-(12-fluoro-6,7-dihydro-5H-pyrido[2′,3′:3,4]azepino[1,2-a]indol-2-yl)-2-(4-fluorophenyl)-N-methyl-6-(N-methylmethylsulfonamido)benzofuran-3-carboxamide], for which the IC50 is 4.29 nM in test [1] (setting [3]) and 3.71 nM in test [2] (setting [4]).
As to `CNC(=O)c1c(-c2ccc(F)cc2)oc2cc(N(C)S(C)(=O)=O)c(-c3ccc4c(n3)-c3cc5c(C#N)cccc5n3CCC4)cc12` [Example 73], the IC50 in test [1] (setting [3]) is 2.78 nM; in test [2] (setting [4]), 2.01 nM.
On the same counts, the results for `CNC(=O)c1c(-c2ccc(F)cc2)oc2cc(N(C)S(C)(=O)=O)c(-c3ccc4c(n3)-c3cc5c(F)cccc5n3C(=O)CC4)cc12` [Example 74, 5-(12-fluoro-7-oxo-6,7-dihydro-5H-pyrido[2′,3′:3,4]azepino[1,2-a]indol-2-yl)-2-(4-fluorophenyl)-N-methyl-6-(N-methylmethylsulfonamido)benzofuran-3-carboxamide] are 11.4 nM and 8.2 nM.
Taken in the same sequence, the figures for `CNC(=O)c1c(-c2ccc(F)cc2)oc2cc(N(C)S(C)(=O)=O)c(-c3ccc4c(n3)-c3c(C)c5ccccc5n3CC4)cc12` [Example 76, 2-(4-fluorophenyl)-N-methyl-5-(12-methyl-5,6-dihydroindolo[1,2-h][1,7]naphthyridin-2-yl)-6-(N-methylmethylsulfonamido)benzofuran-3-carboxamide] were 194 nM and 1000 nM.
Taken in the same sequence, the figures for `CNC(=O)c1c(-c2ccc(F)cc2)oc2cc(N(C)S(C)(=O)=O)c(-c3ccc4c(n3)-c3cc5ncccc5n3CC4)cc12` [Example 77] were 4.03 nM and 27.9 nM.
`CNC(=O)c1c(-c2ccc(F)cc2)oc2cc(N(C)S(C)(=O)=O)c(-c3ccc4c(n3)-c3cc5nc(OC)ccc5n3CC4)cc12` [Example 78]: the IC50 is 22.1 nM in test [1] (setting [3]) and 206 nM in test [2] (setting [4]).
On the same counts, the results for `CNC(=O)c1c(-c2ccc(F)cc2)oc2cc(N(C)S(C)(=O)=O)c(-c3ccc4ccn5c6ccccc6c(C)c5c4n3)cc12` [Example 79, 2-(4-fluorophenyl)-N-methyl-5-(12-methylindolo[1,2-h][1,7]naphthyridin-2-yl)-6-(N-methylmethylsulfonamido)benzofuran-3-carboxamide] are 77.3 nM and 93.8 nM.

(Values after patent publication US9243002B2, “Tetracyclic heterocycle compounds and methods of use thereof for the treatment of hepatitis C” (priority 2013, dated 2016).)
